Data on 11 compounds can be found in ChEMBL document CHEMBL1201862, “PubChem BioAssay data set” (2004).

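Growth conditions: 96-well plates. Treatment: test compound, 48 hours, 5 concentrations. Analysis: linear interpolation between bracketing concentrations; unreached endpoints set to highest concentration. Here, GI50 denotes the concentration required for 50% inhibition of growth.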 Calls of active or inactive are those of the source. Rule as the data show it: active = GI50 up to about 1.1 µM and inactive = higher.

Some test systems named below: K562; T47D; SK-MEL-5; A549; HOP-62; MCF7; SF-539; OVCAR-3; CCRF-CEM; OVCAR-5; NCI/ADR-RES; SNB-19; NCI-H460; HT-29; MOLT-4; Malme-3M; RXF 393; CAKI-1; RPMI-8226.
Common to all, as to test: NCI tumour cell line growth inhibition, 48 h

Take `Cc1cccc2c1Oc1cc(Cl)ccc1C2NC(=O)CCN1CCOCC1` (stereo not drawn): the GI50 in the assay with K562, in the assay with T47D, in the assay on SK-MEL-5, in the assay on A549, in the assay on HOP-62 and in the assay on MCF7 was > 100 µM (inactive) throughout. Moreover, the GI50 in the assay on SF-539, in the assay with OVCAR-3, in the assay with CCRF-CEM, in the assay with OVCAR-5, in the assay on NCI/ADR-RES and in the assay on SNB-19 was > 100 µM (inactive) throughout. Moreover, the figures for the GI50 in the assay on NCI-H460, in the assay on HT-29 and in the assay with MOLT-4 were > 100 µM (inactive), 61.8 µM (inactive) and 49.4 µM (inactive), respectively.
On to `C=CCN1C[C@H](C)N([C@H](c2ccc(C(=O)NC(CC)CC)cc2)c2cccc(OC)c2)C[C@H]1C`, for which the GI50 was 32.4 µM (inactive) with K562; 29 µM (inactive) in the assay with T47D; 17.9 µM (inactive) in the assay on SK-MEL-5; 33.9 µM (inactive) in the assay with A549; 20.4 µM (inactive) in the assay with Malme-3M; > 100 µM (inactive) in the assay on HOP-62. Besides, the GI50 in the assay with MCF7 was 35.2 µM (inactive); in the assay with SF-539, 20.4 µM (inactive); with OVCAR-3 it was 52.4 µM (inactive); in the assay on RXF 393 it was 33.7 µM (inactive); in the assay with CCRF-CEM, 41.4 µM (inactive); in the assay with OVCAR-5, 59.6 µM (inactive). The GI50 was 42.8 µM (inactive) in the assay with NCI/ADR-RES; 75 µM (inactive) in the assay on SNB-19; 31 µM (inactive) in the assay with NCI-H460; 22.6 µM (inactive) in the assay on CAKI-1; 25.1 µM (inactive) with HT-29; > 100 µM (inactive) in the assay with MOLT-4.
Turning to `CCc1nc(N)nc(N)c1-c1ccc([N+](C)(C)C)cc1`, the GI50 with K562 was > 83.4 µM (inactive); in the assay with T47D, > 100 µM (inactive); in the assay with SK-MEL-5 it was > 100 µM (inactive); with A549, > 100 µM (inactive); with HOP-62 it was > 100 µM (inactive); with MCF7, > 100 µM (inactive). Besides, the GI50 in the assay with SF-539, in the assay on OVCAR-3, in the assay on RXF 393, in the assay with CCRF-CEM, with OVCAR-5 and in the assay on NCI/ADR-RES was > 100 µM (inactive) each time. For the same compound, the GI50 is > 100 µM (inactive) with SNB-19; > 90.2 µM (inactive) in the assay with NCI-H460; > 100 µM (inactive) in the assay on CAKI-1; > 100 µM (inactive) with RPMI-8226; > 100 µM (inactive) with HT-29; > 100 µM (inactive) in the assay on MOLT-4.
As for `CN1C/C(=C\c2cccs2)C2=NC(=S)NC(c3cccs3)C2C1` (stereo not drawn), the GI50 in the assay on K562 was 44.7 µM (inactive); with T47D, 24.9 µM (inactive); in the assay with SK-MEL-5 it was 33.6 µM (inactive); in the assay with A549, 50.7 µM (inactive); with Malme-3M it was 16 µM (inactive); in the assay on HOP-62, > 100 µM (inactive). The GI50 in the assay with MCF7 is 35.6 µM (inactive); in the assay with OVCAR-3, 76.4 µM (inactive); in the assay on RXF 393 it was 88.7 µM (inactive); in the assay on CCRF-CEM it was 19.7 µM (inactive); with OVCAR-5 it was > 100 µM (inactive); with NCI/ADR-RES it was 44.4 µM (inactive). Further, the GI50 is > 100 µM (inactive) in the assay with SNB-19; 50.6 µM (inactive) with NCI-H460; > 100 µM (inactive) in the assay with CAKI-1; 29.9 µM (inactive) in the assay on RPMI-8226; 68.7 µM (inactive) in the assay on HT-29; 19.5 µM (inactive) with MOLT-4.
Consider `CN(C)CCNC(=O)c1cccc2c1Oc1cccc([N+](=O)[O-])c1O2`, for which the GI50 with K562 is 20 µM (inactive); in the assay with T47D, 14.8 µM (inactive); with SK-MEL-5, 19.1 µM (inactive); in the assay with A549 it was 16 µM (inactive); with Malme-3M, 14.1 µM (inactive); in the assay with HOP-62, 16.1 µM (inactive). Moreover, the GI50 was 19.1 µM (inactive) in the assay on MCF7; 18.2 µM (inactive) in the assay on SF-539; 20.8 µM (inactive) in the assay with OVCAR-3; 29.6 µM (inactive) in the assay on CCRF-CEM; 20.5 µM (inactive) in the assay with OVCAR-5; 19.1 µM (inactive) with NCI/ADR-RES. Besides, the GI50 in the assay on SNB-19 is 30 µM (inactive); with NCI-H460, 17.3 µM (inactive); in the assay on CAKI-1, 18.4 µM (inactive); in the assay with HT-29 it was 15.2 µM (inactive); in the assay on MOLT-4 it was 4.74 µM (inactive).
Consider `CN(C)CCC(C(=O)C(C)(C)C)c1ccccn1` (stereo not drawn), for which the GI50 in the assay on K562, in the assay with T47D, in the assay with SK-MEL-5, in the assay on A549, with Malme-3M and with HOP-62 was > 100 µM (inactive) throughout. The GI50 in the assay on MCF7 was > 100 µM (inactive); with OVCAR-3, < 0.01 µM (active); with RXF 393 it was > 100 µM (inactive); with CCRF-CEM it was > 100 µM (inactive); in the assay on OVCAR-5 it was > 100 µM (inactive); in the assay on NCI/ADR-RES it was > 100 µM (inactive). Further, the GI50 in the assay on SNB-19, in the assay with NCI-H460, with CAKI-1, with RPMI-8226 and with HT-29 was > 100 µM (inactive) in each case.
`c1ccc(CNCCCCNCCCNCc2ccccc2)cc1`: the GI50 with K562 was 18 µM (inactive); in the assay on T47D, > 100 µM (inactive); in the assay with SK-MEL-5 it was 17.6 µM (inactive); in the assay with A549, 17.4 µM (inactive); in the assay with Malme-3M, 15.5 µM (inactive); in the assay with HOP-62, 22.2 µM (inactive). The GI50 in the assay on MCF7 was > 100 µM (inactive); with OVCAR-3 it was 20 µM (inactive); in the assay with RXF 393 it was 16.4 µM (inactive); with CCRF-CEM it was 13 µM (inactive); in the assay on OVCAR-5, 30.2 µM (inactive); in the assay with NCI/ADR-RES it was > 100 µM (inactive). The GI50 was 16.4 µM (inactive) with SNB-19; 15.3 µM (inactive) with NCI-H460; 13.6 µM (inactive) with CAKI-1; 27.7 µM (inactive) with RPMI-8226; 15.2 µM (inactive) in the assay with HT-29; 14.3 µM (inactive) in the assay on MOLT-4.
Regarding `CN(C)C(=O)c1nnsc1NN=O`, the GI50 in the assay with K562, in the assay with T47D, in the assay on SK-MEL-5, in the assay with A549, with Malme-3M and in the assay on HOP-62 was > 100 µM (inactive) throughout. Also, the GI50 in the assay on MCF7 is > 100 µM (inactive); with OVCAR-3 it was 87.7 µM (inactive); in the assay on RXF 393 it was > 100 µM (inactive); in the assay on CCRF-CEM, > 100 µM (inactive); in the assay with OVCAR-5, > 100 µM (inactive); in the assay on NCI/ADR-RES, > 100 µM (inactive). Also, the GI50 with SNB-19, in the assay with NCI-H460, in the assay with CAKI-1, with RPMI-8226, in the assay with HT-29 and in the assay with MOLT-4 was > 100 µM (inactive) each time.
Take `CC(=O)OCC1OC(n2c(C)c(C)c(C)c(C#N)c2=S)C(OC(C)=O)C(OC(C)=O)C1OC(C)=O` (stereo not drawn): the GI50 with K562 is > 100 µM (inactive); in the assay with T47D, > 100 µM (inactive); in the assay on SK-MEL-5 it was > 100 µM (inactive); in the assay with A549, > 100 µM (inactive); in the assay with Malme-3M it was > 100 µM (inactive); with HOP-62 it was 13.3 µM (inactive). Further, the GI50 in the assay on MCF7 was > 100 µM (inactive); with SF-539 it was 69.7 µM (inactive); in the assay on OVCAR-3 it was > 100 µM (inactive); with RXF 393, 18.6 µM (inactive); with CCRF-CEM it was > 100 µM (inactive); with OVCAR-5 it was > 100 µM (inactive). In addition, the GI50 in the assay with NCI/ADR-RES was > 100 µM (inactive); in the assay on SNB-19 it was 33.7 µM (inactive); in the assay with NCI-H460, > 100 µM (inactive); in the assay on CAKI-1, > 100 µM (inactive); with HT-29, > 100 µM (inactive); in the assay on MOLT-4, > 100 µM (inactive).
As to `O=C1Cc2cc3ccccc3nc2-c2ccccc2N1`, the GI50 in the assay on K562 was 39.9 µM (inactive); in the assay on T47D, 38.5 µM (inactive); in the assay with SK-MEL-5, > 100 µM (inactive); in the assay with A549, 63.7 µM (inactive); with Malme-3M it was > 100 µM (inactive); in the assay on HOP-62 it was 56 µM (inactive). In addition, the GI50 with MCF7 is 49 µM (inactive); in the assay with SF-539, 69.7 µM (inactive); in the assay on OVCAR-3 it was 73.1 µM (inactive); in the assay with RXF 393 it was 70.5 µM (inactive); with CCRF-CEM it was > 100 µM (inactive); with OVCAR-5 it was > 100 µM (inactive). In addition, the GI50 is 31.6 µM (inactive) in the assay with NCI/ADR-RES; 49.2 µM (inactive) with SNB-19; 63.7 µM (inactive) in the assay on NCI-H460; 32.7 µM (inactive) in the assay with CAKI-1; 55.1 µM (inactive) in the assay on HT-29; > 100 µM (inactive) in the assay on MOLT-4.
Regarding `CC1(C)[C@@H]2C[C@H]1C(Cc1cccc(C[C@H]3c4cc(-c5ccccn5)ncc4[C@H]4C[C@@H]3C4(C)C)c1)c1cc(-c3ccccn3)ncc12` (stereo partly drawn), the GI50 in the assay with K562 is 0.435 µM (active); in the assay with T47D, 1.71 µM (inactive); with SK-MEL-5 it was 0.303 µM (active); in the assay with A549 it was 0.518 µM (active); in the assay with HOP-62, 1.28 µM (inactive); in the assay with MCF7 it was 0.547 µM (active). Also, the GI50 with SF-539 is 1.28 µM (inactive); with OVCAR-3, 0.502 µM (active); in the assay with RXF 393, 8.41 µM (inactive); with CCRF-CEM, 0.337 µM (active); in the assay on OVCAR-5 it was 1.12 µM (active); in the assay on NCI/ADR-RES, 4.06 µM (inactive). Moreover, the GI50 is 1.61 µM (inactive) in the assay on SNB-19; 0.689 µM (active) in the assay with NCI-H460; 1.74 µM (inactive) in the assay with CAKI-1; 1.39 µM (inactive) in the assay with RPMI-8226; 0.951 µM (active) in the assay with HT-29; 0.312 µM (active) in the assay on MOLT-4.
